# From patent US7741493B2, “Heterocyclic compounds as P2X7 ion channel blockers” (Aventis Pharmaceuticals Inc., priority 2003, dated 2010)
# pIC50: −log10 of the molar value. “And” between values parts separate entries of the source, which are not always exact repeats. Identical values can stand only once. Counter-ions that a name gives are not always drawn.
# Target: T1, P2X7 (Homo sapiens, UniProt Q99572)
# T1 sequence (Q99572 1-595): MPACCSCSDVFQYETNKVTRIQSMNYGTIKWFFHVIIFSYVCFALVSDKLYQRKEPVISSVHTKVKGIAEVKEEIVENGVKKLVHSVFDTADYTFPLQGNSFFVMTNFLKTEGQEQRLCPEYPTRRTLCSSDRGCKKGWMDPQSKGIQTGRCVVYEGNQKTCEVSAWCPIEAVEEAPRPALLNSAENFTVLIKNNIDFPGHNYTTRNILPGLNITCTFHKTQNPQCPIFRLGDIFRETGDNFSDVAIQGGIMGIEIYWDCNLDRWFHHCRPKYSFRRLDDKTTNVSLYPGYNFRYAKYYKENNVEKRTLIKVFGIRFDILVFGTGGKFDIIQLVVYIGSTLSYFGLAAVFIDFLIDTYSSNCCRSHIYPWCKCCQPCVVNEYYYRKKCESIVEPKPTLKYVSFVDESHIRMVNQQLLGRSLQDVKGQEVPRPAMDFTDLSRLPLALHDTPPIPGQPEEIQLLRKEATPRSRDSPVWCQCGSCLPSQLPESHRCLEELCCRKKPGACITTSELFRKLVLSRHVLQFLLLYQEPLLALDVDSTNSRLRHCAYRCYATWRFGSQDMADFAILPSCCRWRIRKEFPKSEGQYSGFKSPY
# Assay: YO-PRO-1 dye uptake assay in U373 cells stably expressing P2X7
# Format: cell-based
# Design: The complete open reading frame of human P2X7 was amplified from Incyte clone 148057; expressed in transfected cells
# Settings: IC50 (nM), dye uptake through P2X7, U373 cells, 300 μM BzATP, 5 μM YO-PRO-1, test compounds 30 nM to 3 μM
# Procedure: Following a 24-hr exposure to DNA, cells were trypsinized and re-seeded at low density in the presence of […] G418. After incubation for 2 weeks, isolated clones were selected with cloning cylinders and replated in […] G418. Cell clones were then expanded. Clones were screened for P2X7 by applying ATP and recording the resultant current using patch clamp electrophysiology.
# U373 cells stably expressing P2X7 were used to screen drugs via a dye uptake assay. Cells were plated overnight on collagen coated 96-well plates at a density of 35,000 cells per well. The following day, culture media was replaced with Mg^++ and Ca^++-free Hank's balanced salt solution and various concentrations of test compounds ranging from 30 nM to 3 μM. Cells were then allowed to incubate with test compounds at 37° C. for 20 minutes. Following this incubation period YO-PRO-1 dye (Molecular Probes, Eugene, Oreg., final concentration 5 μM) and 2′-& 3′-O-(4-Benzolybenzoyl)-Adenosine 5′-triphosphate (Sigma Chemical, St Louis, Mo., final concentration 300 μM) were added to the cells sequentially. Cells were then incubated at 37° C. for 1.5 hours. […] Fluorescence in the presence of test substances was compared to that in the absence of test substances (control).
row,Compound,IC50 [nM]
1,"c1ccc(CNCC2=N[C@@H](c3ccccc3)[C@@H](c3ccccc3)N2)cc1 [[(cis-4,5-Diphenyl-4,5-dihydro-1H-imidazol-2-yl)methyl]benzylamine ditrifluoroacetate]",318
2,"c1ccc(CCC2=N[C@H](c3ccccc3)[C@H](c3ccccc3)N2)cc1 [cis-4,5-diphenyl-2-(2-phenylethyl)-4,5-dihydro-1H-imidazole]",77

# Same assay, conditions: dye uptake through P2X7, U373 cells, 300 μM BzATP, 5 μM YO-PRO-1, test compounds 30 nM to 3 μM; read-out: IC50
row,pIC50,Compound
1,6.40,"CC(OCC1=N[C@@](C)(c2ccccc2)[C@@H](c2ccccc2)N1)C1CC1 (relative stereo) [2-[(1-Cyclopropyl-1-ethoxy)methyl]-cis-4,5-diphenyl-4-methyl-4,5-dihydro-1H-imidazole trifluoroacetate]"
2,6.78,"Cc1ccccc1[C@H]1NC(NCc2ccccc2)=N[C@H]1c1ccccc1C [[cis-4,5-bis-(2-Methylphenyl)-4,5-dihydro-1H-imidazol-2-yl]-benzylamine hydrochloride]"
3,6.20,"Clc1ccccc1CSC1=N[C@@H](c2ccccc2)[C@@H](c2ccccc2)N1 [cis-4,5-diphenyl-2-(2-chlorobenzyl)thio-4,5-dihydro-1H-imidazole]"
4,6.95,"c1ccc(CCNC2=N[C@@H](c3ccccc3)[C@@H](c3ccccc3)N2)cc1 [cis-4,5-diphenyl-2-[(2-phenyl)ethyl]amino-4,5-dihydro-1H-imidazole]"
5,6.36,"Clc1cccc([C@H]2NC(NCc3ccccc3)=N[C@H]2c2cccc(Cl)c2)c1 [[cis-4,5-bis-(3-Chlorophenyl)-4,5-dihydro-1H-imidazol-2-yl]-benzylamine hydrochloride]"
6,6.31,"C[C@@]1(c2ccccc2)N=C(COC2CCCC2)N[C@@H]1c1ccccc1 (relative stereo) [2-[(Cyclopentyloxy)methyl]-cis-4,5-diphenyl-4-methyl-4,5-dihydro-1H-imidazole hydrochloride]"
7,7.38,"Fc1ccc(CC2=N[C@@H](c3ccccc3)[C@@H](c3ccccc3)N2)c(F)c1 [2-(2,4-Difluorobenzyl)-cis-4,5-diphenyl-4,5-dihydro-1H-imidazole trifluoroacetate]"
8,6.14,"Cc1cccc(CSC2=N[C@@H](c3ccccc3)[C@@H](c3ccccc3)N2)c1 [cis-4,5-diphenyl-2-(3-methylbenzyl)thio-4,5-dihydro-1H-imidazole]"
9,6.50,"Fc1ccc(CNC2=N[C@@H](c3cccc(Cl)c3)[C@@H](c3cccc(Cl)c3)N2)cc1 [[cis-4,5-bis-(3-Chlorophenyl)-4,5-dihydro-1H-imidazol-2-yl]-(4-fluorobenzyl)amine hydrochloride]"
10,6.97,C[C@@H](C1=N[C@@H](c2ccccc2)[C@@H](c2ccccc2)N1)c1ccccc1 [trifluoroacetate]
11,6.71,"C[C@@]1(c2ccccc2)N=C(COCC2CCCC2)N[C@@H]1c1ccccc1 (relative stereo) [2-[(Cyclopentylmethoxy)methyl]-cis-4,5-diphenyl-4-methyl-4,5-dihydro-1H-imidazole hydrochloride]"
12,7.10,"Fc1cccc([C@H]2NC(Cc3ccc(F)c(F)c3)=N[C@H]2c2cccc(F)c2)c1 [2-(3,4-Difluorobenzyl)-cis-4,5-bis-(3-fluorophenyl)-4,5-dihydro-1H-imidazole trifluoroacetate]"
13,6.65,"Fc1cccc(OCC2=N[C@@H](c3ccccc3)[C@@H](c3ccccc3)N2)c1 [2-[(3-Fluorophenoxy)methyl]-cis-4,5-diphenyl-4,5-dihydro-1H-imidazole trifluoroacetate]"
14,7.03,"Cc1ccccc1CCC1=N[C@@H](c2cccc(F)c2)[C@@H](c2cccc(F)c2)N1 [2-[2-(2-Methylphenyl)ethyl]-cis-4,5-bis-(3-fluorophenyl)-4,5-dihydro-1H-imidazole trifluoroacetate]"
15,6.48,"Fc1cccc([C@H]2NC(Cc3cccc(Cl)c3)=N[C@H]2c2cccc(F)c2)c1 [2-(3-Chlorobenzyl)-cis-4,5-bis-(3-fluorophenyl)-4,5-dihydro-1H-imidazole trifluoroacetate]"
16,6.06,c1ccc(SCC2=N[C@@H](c3ccccc3)[C@@H](c3cccnc3)N2)cc1 (relative stereo) [ditrifluoroacetate]

row,pIC50,Compound
1,6.17,"C[C@@]1(c2ccccc2)N=C(COCC2CC2)N[C@@H]1c1ccccc1 (relative stereo) [2-[[(Cyclopropyl)methoxy]methyl]-cis-4,5-diphenyl-4-methyl-4,5-dihydro-1H-imidazole trifluoroacetate]"
2,6.65,"Brc1cccc(CNC2=N[C@@H](c3ccccc3)[C@@H](c3ccccc3)N2)c1 [cis-4,5-diphenyl-2-(3-bromobenzyl)amino-4,5-dihydro-1H-imidazole]"
3,6.35,"Cc1ccccc1CSC1=N[C@@H](c2ccccc2)[C@@H](c2ccccc2)N1 [cis-4,5-diphenyl-2-(2-methylbenzyl)thio-4,5-dihydro-1H-imidazole]"
4,7.49,"C[C@@]1(c2cccc(F)c2)N=C(Cc2ccc(F)cc2)N[C@@H]1c1cccc(F)c1 (relative stereo) [2-(4-Fluorobenzyl)-cis-4,5-bis-(3-fluorophenyl)-4-methyl-4,5-dihydro-1H-imidazole trifluoroacetate]"
5,6.02,Fc1cccc(F)c1CC1=N[C@@H](c2ccccc2)[C@@H](c2ccccc2)N1 [trifluoroacetate]
6,7.32,"Clc1ccccc1CCC1=N[C@@H](c2ccccc2)[C@@H](c2ccccc2)N1 [2-[2-(2-Chlorophenyl)ethyl]-cis-4,5-diphenyl-4,5-dihydro-1H-imidazole trifluoroacetate]"
7,6.92,"Cc1ccccc1[C@H]1NC(NCc2cccc(F)c2)=N[C@H]1c1ccccc1C [[cis-4,5-bis-(2-Methylphenyl)-4,5-dihydro-1H-imidazol-2-yl]-(3-fluorobenzyl)amine hydrochloride]"
8,7.18,"C[C@@]1(c2cccc(F)c2)N=C(CCc2ccccc2)N[C@@H]1c1cccc(F)c1 (relative stereo) [2-Phenethyl-cis-4,5-bis-(3-fluorophenyl)-4-methyl-4,5-dihydro-1H-imidazole hydrochloride]"
9,6.79 and 6.80,"Clc1ccccc1CC1=N[C@H](c2ccccc2)[C@H](c2ccccc2)N1 [cis-4,5-diphenyl-2-(2-chlorobenzyl)-4,5-dihydro-1H-imidazole]"
10,6.97,"Cc1cccc([C@H]2NC(NCc3ccc(F)cc3)=N[C@H]2c2cccc(C)c2)c1 [[cis-4,5-bis-(3-Methylphenyl)-4,5-dihydro-1H-imidazol-2-yl]-(4-fluorobenzyl)amine hydrochloride]"
11,6.45,"CC(Oc1ccccc1)C1=N[C@@](C)(c2ccccc2)[C@@H](c2ccccc2)N1 (relative stereo) [2-(1-Phenoxyethyl)-cis-4,5-diphenyl-4-methyl-4,5-dihydro-1H-imidazole trifluoroacetate]"
12,6.23,"c1ccc(CSCC2=N[C@@H](c3ccccc3)[C@@H](c3ccccc3)N2)cc1 [2-[(Benzylsulfanyl)methyl]-cis-4,5-diphenyl-4,5-dihydro-1H-imidazole trifluoroacetate]"
13,6.08,"Fc1cccc([C@H]2NC(COc3ccccc3F)=N[C@H]2c2cccc(F)c2)c1 [2-[(2-Fluorophenoxy)methyl]-cis-4,5-bis-(3-fluorophenyl)-4,5-dihydro-1H-imidazole]"
14,6.82,"Cc1ccc([C@H]2NC(NCc3ccc(F)c(F)c3)=N[C@H]2c2ccc(C)cc2)cc1 [[cis-4,5-bis-(4-Methylphenyl)-4,5-dihydro-1H-imidazol-2-yl]-(3,4-difluorobenzyl)-amine hydrochloride]"
15,6.71,"OC(CC1=N[C@@H](c2ccccc2)[C@@H](c2ccccc2)N1)c1ccccc1 (stereo partly drawn) [2-(cis-4,5-diphenyl-4,5-dihydro-1H-imidazol-2-yl)-1-phenylethan-1-ol]"

row,Compound,pIC50
1,"C[C@]1(c2ccccc2)N=C(Cc2ccc(F)cc2F)N[C@H]1c1ccccc1 (relative stereo) [2-(2,4-Difluorobenzyl)-cis-4,5-diphenyl-4-methyl-4,5-dihydro-1H-imidazole trifluoroacetate]",7.80
2,"CC(C1=N[C@](C)(c2ccccc2)[C@H](c2ccccc2)N1)c1ccc(Cl)cc1 (relative stereo) [2-[1-(4-Chlorophenyl)-1-ethyl]-cis-4,5-diphenyl-4-methyl-4,5-dihydro-1H-imidazole trifluoroacetate]",6.48
